Measured values taken from paper PMC7859335, “Discovery of Diaryl Ether Substituted Tetrahydrophthalazinones as TbrPDEB1 Inhibitors Following Structure-Based Virtual Screening” (Frontiers in Chemistry, 2021).

Target: T1, TbrPDEB1 (Trypanosoma brucei, UniProt Q8WQX9)
T1 construct: The TbrPDEB1 catalytic domain phosphodiesterase activity assays were conducted based on a method reported by Sijm et al
T1 sequence (Q8WQX9 565-918 limits assumed): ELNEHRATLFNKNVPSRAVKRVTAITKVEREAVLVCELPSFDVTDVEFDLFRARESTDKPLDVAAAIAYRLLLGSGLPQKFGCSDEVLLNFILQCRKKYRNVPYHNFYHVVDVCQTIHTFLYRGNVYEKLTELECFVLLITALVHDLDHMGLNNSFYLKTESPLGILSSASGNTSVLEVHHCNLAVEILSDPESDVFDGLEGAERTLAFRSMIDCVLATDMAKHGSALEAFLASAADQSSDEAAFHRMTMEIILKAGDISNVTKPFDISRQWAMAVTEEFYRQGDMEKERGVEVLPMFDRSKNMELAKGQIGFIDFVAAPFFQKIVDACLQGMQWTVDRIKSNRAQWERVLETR
Assay: TbrPDEB1 catalytic domain phosphodiesterase activity assay (PDELight HTS cAMP kit)
Assay type: biochemical
Conditions: single point assay at 10 μM inhibitor; for inhibition at 10 µM: read-out: TbrPDEB1 (% inh.)
Method: The TbrPDEB1 catalytic domain phosphodiesterase activity assays were conducted based on a method reported by Sijm et al. ([2019]) with minor adaptations (Sijm et al., [2019]). The PDELight™ HTS cAMP phosphodiesterase Kit (Lonza, Walkersville, USA) was performed at 25°C in non-binding, low volume 384-well plates (Corning, Kennebunk, ME, USA). […] Single concentration measurements were made at 10 μM inhibitor concentration (triplo measurements/assay, n = 2). Dose-response curves were made in the range 100 μM−10 pM (triplo measurements/assay, n = 3). Compounds were diluted in DMSO (final in-test concentration 1%). Inhibitor dilutions (2.5 μL) were transferred to the 384-well plates, 2.5 μL of PDE in stimulation buffer was added and mixed, 5 μL of cAMP (at 2 × Km up to 20 μM) added and the assay mixture was incubated for 20 min at 300 rpm. […] Then, 5 μL of Lonza Detection reagent (diluted to 80% with reaction buffer) was added and the reaction incubated for 10 min at 300 rpm. Luminescence was read with a Victor3 luminometer using a 0.1 s/well program.
The Ki values of the inhibitors analyzed are represented as the mean of at least three independent experiments with the associated standard error of the mean (S.E.M.).

Structure (SMILES)	TbrPDEB1 (% inh.)	inhibition at 10 µM [%]
COc1ccc(C2=NN(C(C)C)C(=O)[C@H]3CC=CC[C@@H]23)cc1Oc1cc(N2CCOCC2)ncn1 (relative stereo) [2f, cis-2-Isopropyl-4-(4-methoxy-3-((6-morpholinopyrimidin-4-yl)oxy)phenyl)-4a,5,8,8a-tetrahydrophthalazin-1(2H)-one]		11 ± 8
COc1ccc(C2=NN(C(C)C)C(=O)[C@H]3CC=CC[C@@H]23)cc1Oc1nccs1 (relative stereo) [2a, cis-2-Isopropyl-4-(4-methoxy-3-(thiazol-2-yloxy)phenyl)-4a,5,8,8a-tetrahydrophthalazin-1(2H)-one]		12 ± 3
COc1ccc(C2=NN(C(C)C)C(=O)[C@H]3CC=CC[C@@H]23)cc1Oc1nc2ccccc2s1 (relative stereo) [2p, cis-4-(3-(Benzo[d]thiazol-2-yloxy)-4-methoxyphenyl)-2-isopropyl-4a,5,8,8a-tetrahydrophthalazin-1(2H)-one]	No inhibition	
COc1ccc(C2=NN(C(C)C)C(=O)[C@H]3CC=CC[C@@H]23)cc1Oc1ncc(CN2CCOCC2)s1 (relative stereo) [2c, cis-2-Isopropyl-4-(4-methoxy-3-((5-(morpholinomethyl)thiazol-2-yl)oxy)phenyl)-4a,5,8,8a-tetrahydrophthalazin-1(2H)-one]		40 ± 4
COc1ccc(C2=NN(C(C)C)C(=O)[C@H]3CC=CC[C@@H]23)cc1Oc1nccn2cnnc12 (relative stereo) [2l, cis-4-(3-([1,2,4]Triazolo[4,3-a]pyrazin-8-yloxy)-4-methoxyphenyl)-2-isopropyl-4a,5,8,8a-tetrahydrophthalazin-1(2H)-one]	No inhibition	
COc1ccc(C2=NN(C(C)C)C(=O)[C@H]3CC=CC[C@@H]23)cc1Oc1nccc2sccc12 (relative stereo) [2j, cis-2-Isopropyl-4-(4-methoxy-3-(thieno[3,2-c]pyridin-4-yloxy)phenyl)-4a,5,8,8a-tetrahydrophthalazin-1(2H)-one]	No inhibition	
CCOC(=O)c1cnc(Oc2cc(C3=NN(C(C)C)C(=O)[C@@H]4CC=CC[C@H]34)ccc2OC)s1 (relative stereo) [2b, Ethyl 2-(5-(cis-3-isopropyl-4-oxo-3,4,4a,5,8,8a-hexahydrophthalazin-1-yl)-2-methoxyphenoxy)thiazole-5-carboxylate]		11
COc1ccc(C2=NN(C(C)C)C(=O)[C@H]3CC=CC[C@@H]23)cc1Oc1ncnc2sccc12 (relative stereo) [2k, cis-2-Isopropyl-4-(4-methoxy-3-(thieno[2,3-d]pyrimidin-4-yloxy)phenyl)-4a,5,8,8a-tetrahydrophthalazin-1(2H)-one]	No inhibition	
COc1ccc(C2=NN(C(C)C)C(=O)[C@@H]3CC=CC[C@H]23)cc1Oc1cnc(C(N)=O)cn1 (relative stereo) [2e, 5-(5-(cis-3-Isopropyl-4-oxo-3,4,4a,5,8,8a-hexahydrophthalazin-1-yl)-2-methoxyphenoxy)pyrazine-2-carboxamide]		18 ± 9

The next lines start with the values.

TbrPDEB1 (% inh.)	inhibition at 10 µM [%]	Structure (SMILES)
No inhibition		CCCCNC(=O)c1ccnc(Oc2cc(C3=NN(C(C)C)C(=O)[C@@H]4CC=CC[C@H]34)ccc2OC)c1 (relative stereo) [3q, N-Butyl-2-(5-(cis-3-isopropyl-4-oxo-3,4,4a,5,8,8a-hexahydrophthalazin-1-yl)-2-methoxyphenoxy)isonicotinamide]
No inhibition		COc1ccc(C2=NN(C(C)C)C(=O)[C@@H]3CC=CC[C@H]23)cc1Oc1ncccc1C(=O)NCc1ccco1 (relative stereo) [3t, N-(Furan-2-ylmethyl)-2-(5-(cis-3-isopropyl-4-oxo-3,4,4a,5,8,8a-hexahydrophthalazin-1-yl)-2-methoxyphenoxy)nicotinamide]
No inhibition		COc1ccc(C2=NN(C(C)C)C(=O)[C@@H]3CC=CC[C@H]23)cc1Oc1cc(C#N)ccn1 (relative stereo) [3b, 2-(5-(cis-3-Isopropyl-4-oxo-3,4,4a,5,8,8a-hexahydrophthalazin-1-yl)-2-methoxyphenoxy)isonicotinonitrile]
No inhibition		COc1ccc(C2=NN(C(C)C)C(=O)[C@@H]3CC=CC[C@H]23)cc1Oc1ccc(C(N)=O)cn1 (relative stereo) [3k, 6-(5-(cis-3-Isopropyl-4-oxo-3,4,4a,5,8,8a-hexahydrophthalazin-1-yl)-2-methoxyphenoxy)nicotinamide]
	27	COc1ccc(C2=NN(C(C)C)C(=O)[C@@H]3CC=CC[C@H]23)cc1Oc1cc(C(=O)NCC(N)=O)ccn1 (relative stereo) [3m, N-(2-Amino-2-oxoethyl)-2-(5-(cis-3-isopropyl-4-oxo-3,4,4a,5,8,8a-hexahydrophthalazin-1-yl)-2-methoxyphenoxy)isonicotinamide]
No inhibition		COc1ccc(C2=NN(C(C)C)C(=O)[C@@H]3CC=CC[C@H]23)cc1Oc1cc(C(=O)NCc2ccco2)ccn1 (relative stereo) [3u, N-(Furan-2-ylmethyl)-2-(5-(cis-3-isopropyl-4-oxo-3,4,4a,5,8,8a-hexahydrophthalazin-1-yl)-2-methoxyphenoxy)isonicotinamide]
No inhibition		COc1ccc(C2=NN(C(C)C)C(=O)[C@@H]3CC=CC[C@H]23)cc1Oc1ncccc1C(N)=O (relative stereo) [3i, 2-(5-(cis-3-Isopropyl-4-oxo-3,4,4a,5,8,8a-hexahydrophthalazin-1-yl)-2-methoxyphenoxy)nicotinamide]
No inhibition		COc1ccc(C2=NN(C(C)C)C(=O)[C@@H]3CC=CC[C@H]23)cc1Oc1cc(C(=O)O)ccn1 (relative stereo) [3f, 2-(5-(cis-3-Isopropyl-4-oxo-3,4,4a,5,8,8a-hexahydrophthalazin-1-yl)-2-methoxyphenoxy)isonicotinic acid]
No inhibition		COC(=O)c1cccnc1Oc1cc(C2=NN(C(C)C)C(=O)[C@@H]3CC=CC[C@H]23)ccc1OC (relative stereo) [3a, Methyl 2-(5-(cis-3-isopropyl-4-oxo-3,4,4a,5,8,8a-hexahydrophthalazin-1-yl)-2-methoxyphenoxy)nicotinate]
	11 ± 6	COc1ccc(C2=NN(C(C)C)C(=O)[C@@H]3CC=CC[C@H]23)cc1Oc1ccc(C(=O)O)cn1 (relative stereo) [3g, 6-(5-(cis-3-Isopropyl-4-oxo-3,4,4a,5,8,8a-hexahydrophthalazin-1-yl)-2-methoxyphenoxy)nicotinic acid]
	36 ± 6	COc1ccc(C2=NN(C(C)C)C(=O)[C@@H]3CC=CC[C@H]23)cc1Oc1cccc(C#N)n1 (relative stereo) [3d, 6-(5-(cis-3-Isopropyl-4-oxo-3,4,4a,5,8,8a-hexahydrophthalazin-1-yl)-2-methoxyphenoxy)picolinonitrile]
	5 ± 1	COc1ccc(C2=NN(C(C)C)C(=O)[C@@H]3CC=CC[C@H]23)cc1Oc1ccc(C(=O)NCC(N)=O)cn1 (relative stereo) [3n, N-(2-Amino-2-oxoethyl)-6-(5-(cis-3-isopropyl-4-oxo-3,4,4a,5,8,8a-hexahydrophthalazin-1-yl)-2-methoxyphenoxy)nicotinamide]
	40 ± 1	COc1ccc(C2=NN(C(C)C)C(=O)[C@@H]3CC=CC[C@H]23)cc1Oc1cccc(C(=O)NCC(N)=O)n1 (relative stereo) [3o, N-(2-Amino-2-oxoethyl)-6-(5-(cis-3-isopropyl-4-oxo-3,4,4a,5,8,8a-hexahydrophthalazin-1-yl)-2-methoxyphenoxy)picolinamide]
No inhibition		CCCCNC(=O)c1cccnc1Oc1cc(C2=NN(C(C)C)C(=O)[C@@H]3CC=CC[C@H]23)ccc1OC (relative stereo) [3p, N-Butyl-2-(5-(cis-3-isopropyl-4-oxo-3,4,4a,5,8,8a-hexahydrophthalazin-1-yl)-2-methoxyphenoxy)nicotinamide]
No inhibition		COc1ccc(C2=NN(C(C)C)C(=O)[C@@H]3CC=CC[C@H]23)cc1Oc1ncccc1C(=O)O (relative stereo) [3e, 2-(5-(cis-3-Isopropyl-4-oxo-3,4,4a,5,8,8a-hexahydrophthalazin-1-yl)-2-methoxyphenoxy)nicotinic acid]
No inhibition		COc1ccc(C2=NN(C(C)C)C(=O)[C@@H]3CC=CC[C@H]23)cc1Oc1cc(C(N)=O)ccn1 (relative stereo) [3j, 2-(5-(cis-3-Isopropyl-4-oxo-3,4,4a,5,8,8a-hexahydrophthalazin-1-yl)-2-methoxyphenoxy)isonicotinamide]
No inhibition		COc1ccc(C2=NN(C(C)C)C(=O)[C@@H]3CC=CC[C@H]23)cc1Oc1cccc(C(=O)O)n1 (relative stereo) [3h, 6-(5-(cis-3-Isopropyl-4-oxo-3,4,4a,5,8,8a-hexahydrophthalazin-1-yl)-2-methoxyphenoxy)picolinic acid]
